“Also recorded” adds a separate entry of the source.
Legend:
hepatic stellate cells [1] = assay: Proliferation of cultured hepatic stellate cells (nuclear expression of PCNA, S-phase); format: cell-based, Sprague-Dawley rats; conditions: for effect on stellate cell cycle activation (PCNA) induced by collagen type I matrix or TGFα: 50 μM
Experimental: Stellate cells were prepared from male Sprague-Dawley (400-500 grams) rats (Charles River Breeding Labs) by in situ perfusion of the liver and single-step density Nycodenz® gradient (Accurate Chemical & Scientific Corp.). […] The cells were mixed with 9.5 mL Hank's buffer containing 3 g/L BSA and 8 mL of 28.7% (w/v) Nycodenz® in sodium-free Hank's buffer. The gradient was generated by placing 6 mL of the Hank's/BSA solution on top of the liver cell mixture in a 50 mL centrifugation tube. After centrifugation (1000 g, 4° C., 20 min) the cells were aspirated from above the interface and washed twice in serum-free DME regular glucose medium.
Thereafter, the cells were cultured under an atmosphere of 5% CO2, 95% air in tissue culture dishes using DME medium containing penicillin G 100 units/mL, streptomycin sulfate 100 μg/mL and 10% fetal calf serum. For TGFα-induced stellate cell activation, cells were cultured on plastic in serum-free defined media (Fibroblast basal medium with Insulin, Clonetics). Fibroblast basal medium is similar to F12 medium, but contains folinic acid, Hepes buffer with NaOH, MgSO4, and adenine instead of folic acid, NaHCO3, MgCl2 and hypoxanthine. Cells were plated on 60-mm dishes coated with collagen type 1, EHS matrix (Matrigel; Collaborative Bio-medical Products) or plastic (according to the experimental design), for the initial seeding of fat-storing cells at a density of 2-3×10^6. […]
The number of PCNA (+), c-myb(+), or NFkB(+), α-SMA(+) cells was expressed as a percentage of total cells. At least 1,000 cells were analyzed for each experimental point, and a minimum of two observers analyzed each immunohistochemical experiment independently. […]
The role of lipid peroxidation on stellate cell activation was examined. Stellate cell activation was induced in quiescent cells growing on a EHS matrix; inhibition of this phenotype was evaluated with cells activated by collagen type I matrix. […] Stellate cell activation was assessed by the expression of α-SMA (as described in Example 1) and S-phase by the presence of PCNA.

[2] = nutritional- or CCl4-induced injury; cited from earlier work
[3] = Carbonyl modifications of plasma proteins (index of oxidative stress) in patients; format: in vivo, human; conditions: 1,200 IU/day, 8 weeks; before treatment 2.7±0.4; P<0.001
Text: (§1) Patients with chronic active hepatitis C and severe necro-inflammatory changes without cirrhosis (as established by liver biopsy) were studied at the University of California San Diego Liver Clinic. Six patients (2 women and 4 men; 47±8 years) who had not responded to interferon α-2b therapy (i.e., who were refractory) and with no other co-morbid illnesses received 1,200 IU/day of d-α-tocopherol orally for 8 weeks. On completion of the study, all patients underwent a liver biopsy; liver sections from patients with chronic hepatitis C and from individuals without liver disease were provided by Dr. C. Behling at UCSD.
(§2) Liver tissue obtained from biopsies was studied, as described below, by immunohistochemistry and in situ hybridization with specific riboprobes. Carbonyl modifications were assayed in plasma proteins, as an index of oxidative stress. [Palinski et al., Arteriosclerosis 10:325-35 (1990)]. Serum alanine aminotransferase (ALT) was determined with a (Hitachi) analyzer, plasma d-α-tocopherol by high pressure chromatography, and HCV RNA by quantitative PCR. [See U.S. Pat. Nos. 4,683,202 and 4,683,195, hereby incorporated by reference].

[4] = Plasma d-α-tocopherol by high pressure chromatography in patients; format: in vivo, human; conditions: 1,200 IU/day orally for 8 weeks; before treatment 9.6±4.3; P<0.003
Text: as §1, §2

[5] = tested on: fibrogenesis cascade in the liver of patients with chronic hepatitis C; assay: Liver biopsy immunohistochemistry and in situ hybridization in patients with chronic hepatitis C; format: in vivo, human; conditions: 8 weeks
Experimental: Antisera to MDA-lysine adducts were prepared by a variation of the technique described by Houglum et al., J Clin Invest 86:1991-98 (1990). Briefly, rabbit LDS was purified and modified with MDA, and the modified autologous LDL was used to immunize rabbits.
Sections from paraffin-embedded blocks were deparaffinized, passed through graded series of alcohol, rehydrated in PBS, and stained with hematoxylin and eosin. Immunohistochemistry was performed using the avidin-biotin complex-alkaline phosphatase, peroxidase systems (Vector Laboratories, ABC-peroxidase system) or fluorescein. Sections were immunostained with antibodies specific for MDA-protein adducts, α-smooth muscle actin (Sigma), or c-myb.
The antisera was used with fluorochrome-conjugated secondary antibodies. Fluorescent labels were visualized using a dual filter Zeiss microscope, while a phase-contrast microscope was used to visualize antigens with hematoxilin/eosin or alkaline phosphatase secondary antibodies.
Hybridization, RNase digestion of mismatched sequences, and immunological detection of the digoxigenin-labeled RNA probes were performed as described by Houglum et al., Am. […] Briefly, single stranded RNA probes in both sense and antisense orientations were transcribed in vitro from the plasmid pHuCol, which contains a 300 base pair cDNA fragment of the human collagen α1(I) gene, and labeled with digoxigenin-11-UTP. […] For the labelling procedure, 2 μg of linearized plasmid were transcribed in a 30 μL reaction volume containing 40 mM tris(hydroxymethyl)aminomethane (Tris).HCl, pH 7.9; 6 mM MgCl2; 2 mM apermidine.HCl; 10 mM dithiothreitol, 10 mM ATP, CTP, and GTP; 6.5 mM UTP; and 3.5 mM digoxigenin-11-UTP with 309 units of T3 or T7 DNA polymerase. The specificity of the probe was assessed by in situ hybridization of human skin. All sections were processed using same batches of probe and reagents and using sense and antisense in parallel.

HCV = HCV RNA by quantitative PCR in patients; format: in vivo, human; conditions: 1,200 IU/day, 8 weeks
Text: as §1, §2

hepatic stellate cells [6] = assay: Activation of cultured hepatic stellate cells (α-SMA immunohistochemistry); format: cell-based, Sprague-Dawley rats; conditions: for effect on stellate cell activation / increased α-SMA expression induced by collagen type I matrix: cultured on collagen type I matrix
Experimental: Stellate cells were prepared from male Sprague-Dawley (400-500 grams) rats (Charles River Breeding Labs) by in situ perfusion of the liver and single-step density Nycodenz® gradient (Accurate Chemical & Scientific Corp.). [See Bedossa et al., Hepatology 19(5):1262-71 (1994); Brenner et al., Mol. Biol. Med. 7:105-15 (1990)]. The cells were mixed with 9.5 mL Hank's buffer containing 3 g/L BSA and 8 mL of 28.7% (w/v) Nycodenz® in sodium-free Hank's buffer. The gradient was generated by placing 6 mL of the Hank's/BSA solution on top of the liver cell mixture in a 50 mL centrifugation tube. […] For TGFα-induced stellate cell activation, cells were cultured on plastic in serum-free defined media (Fibroblast basal medium with Insulin, Clonetics). Fibroblast basal medium is similar to F12 medium, but contains folinic acid, Hepes buffer with NaOH, MgSO4, and adenine instead of folic acid, NaHCO3, MgCl2 and hypoxanthine. Cells were plated on 60-mm dishes coated with collagen type 1, EHS matrix (Matrigel; Collaborative Bio-medical Products) or plastic (according to the experimental design), for the initial seeding of fat-storing cells at a density of 2-3×10^6. Matrigel's major components are […], collagen IV, proteoglycans, entactin and nidogen; it also contains:TGFβ, fibroblast growth factor, and tissue plasminogen activator. […] Medium was changed every 24 h for all conditions. The sequences of c-myb oligonucleotide phosphorothioate were: sense ([NT] ID NO:3) and antisense ([NT] ID NO:4). Stellate cells were identified by their typical autofluorescence at 328 nm excitation wavelength, staining of lipid droplets by oil red, and immunohistochemistry with a monoclonal antibody against desmin. [Bedossa et al., Hepatology 19(5):1262-71 (1994)]. Cells, fixed with acetone:methanol (50:50) at -20° C. for 20 min., and liver tissue were immunostained as described, e.g., by Buck et al., EMBO J. 13:851-60 (1994). Antibodies directed against c-myb, NFkB65, α-SMA, or PCNA were obtained from Sigma, 5 Prime 3 Prime, and Oncogene Sciences. Fluorescent labels were visualized using a dual channel Zeiss microscope and a computer imaging system (Image 1 software). A phase-contrast microscope was utilized to visualize antigens with alkaline phosphatase secondary antibodies (Vector Laboratories). Cytochromes utilized were alkaline phosphatase with fast green as counterstain, and FITC with Evans blue as counterstain (Sigma). The number of PCNA (+), c-myb(+), or NFkB(+), α-SMA(+) cells was expressed as a percentage of total cells. At least 1,000 cells were analyzed for each experimental point, and a minimum of two observers analyzed each immunohistochemical experiment independently. Negative control samples were processed in parallel under the same conditions, but with omission of the first antibody. The role of lipid peroxidation on stellate cell activation was examined. Stellate cell activation was induced in quiescent cells growing on a EHS matrix; inhibition of this phenotype was evaluated with cells activated by collagen type I matrix. [See Davis et al., J. Biol. Chem. 262:10280-86 (1987)]. When stellate cell activation was induced by TGFα as described, e.g., by Pinzani et al., J. Clin. […] Stellate cell activation was assessed by the expression of α-SMA (as described in Example 1) and S-phase by the presence of PCNA. [Bravo et al., Nature (Lond.) 326:515-17 (1987)]. […] SEM<30% of the mean for all conditions).

collagen expression = conditions: injected into mice; cited from earlier work
[7] = in vivo; cited from earlier work
cultured stellate cells = conditions: cited from earlier work
phospholipase A2 = conditions: cited from earlier work
[8] = tested on: fatty acid cyclooxygenase; conditions: cited from earlier work
[9] = tested on: human polymorphonuclear leukocytes; conditions: stimulated with calcium ionophore A23187; cited from earlier work
5-lipoxygenase [10] = target: T1, 5-lipoxygenase (Homo sapiens, UniProt P09917); conditions: cited from earlier work
T1 sequence (P09917 1-674): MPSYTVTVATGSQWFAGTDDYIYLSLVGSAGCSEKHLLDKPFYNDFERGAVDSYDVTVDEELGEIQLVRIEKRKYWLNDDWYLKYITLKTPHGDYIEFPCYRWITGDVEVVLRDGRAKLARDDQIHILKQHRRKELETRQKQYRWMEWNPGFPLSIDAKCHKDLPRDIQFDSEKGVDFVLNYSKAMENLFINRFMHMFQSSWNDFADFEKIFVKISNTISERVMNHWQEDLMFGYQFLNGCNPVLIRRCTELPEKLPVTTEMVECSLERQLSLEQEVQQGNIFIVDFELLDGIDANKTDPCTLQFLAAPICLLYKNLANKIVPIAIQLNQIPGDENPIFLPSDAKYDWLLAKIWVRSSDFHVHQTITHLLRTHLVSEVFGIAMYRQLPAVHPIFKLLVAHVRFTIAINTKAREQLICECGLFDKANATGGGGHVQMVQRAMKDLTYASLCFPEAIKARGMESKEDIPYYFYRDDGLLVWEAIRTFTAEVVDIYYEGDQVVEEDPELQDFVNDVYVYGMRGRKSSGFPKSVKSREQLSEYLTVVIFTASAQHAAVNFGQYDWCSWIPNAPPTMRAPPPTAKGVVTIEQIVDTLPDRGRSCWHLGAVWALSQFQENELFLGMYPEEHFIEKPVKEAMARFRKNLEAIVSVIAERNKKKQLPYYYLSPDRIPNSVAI

[11] = cited from earlier work
chronic hepatitis B or C = conditions: in vivo; cited from earlier work
5-lipoxygenase [12] = target: T1, 5-lipoxygenase; conditions: cited from earlier work; remark: listed apart in the source
cyclooxygenase = conditions: cited from earlier work

Molecule: Cc1c(C)c2c(c(C)c1O)CC[C@@](C)(CCC[C@H](C)CCC[C@H](C)CCCC(C)C)O2 [d-α-tocopherol]
- effect on stellate cell cycle activation (PCNA) induced by collagen type I matrix or TGFα (hepatic stellate cells [1]): blocked the activation of the stellate cell cycle
- hepatocellular necrosis [2]: ameliorate hepatocellular necrosis
- carbonyl modified plasma proteins after treatment [3]: 1.5 ± 0.4 µmol/mL
- plasma levels of d-α-tocopherol after treatment [4]: 27±6.8
- expression of c-myb in stellate cells ([5]; 1,200 IU/day orally): diminished expression of c-myb in stellate cells
- stellate cell activation (α-SMA) in liver sections ([5]; 1,200 IU/day orally): lesser degree of stellate cell activation
- expression of collagen α1(I) mRNA in stellate cells ([5]; 1,200 IU/day orally, in situ hybridization): lower expression of collagen al(I) mRNA in stellate cells
- MDA-adducts in liver sections ([5]; 1,200 IU/day orally, patients refractory to interferon): decreased MDA-adducts
- effect on histologic degree of hepatocellular inflammation ([5]; 1,200 IU/day): did not significantly affect
- effect on HCV titres (HCV): did not significantly affect
- effect on stellate cell activation / increased α-SMA expression induced by collagen type I matrix (hepatic stellate cells [6]; 50 μM): blocked the induction of stellate cell activation by collagen type I matrix; also recorded: abolished
- collagen expression by the skin (collagen expression): did not inhibit collagen expression by the skin
- collagen expression in the liver and tendons (collagen expression): decreases collagen expression in the liver and tendons

Molecule: interferon alpha
- patients requiring discontinuance or dosing adjustment [7]: 20-50%

Molecule: CC(C)(Sc1cc(C(C)(C)C)c(O)c(C(C)(C)C)c1)Sc1cc(C(C)(C)C)c(O)c(C(C)(C)C)c1 [probucol]
- inhibition of activation and collagen expression/production (cultured stellate cells): success in inhibiting activation and collagen production

Molecule: CN1CSC(=Cc2cc(C(C)(C)C)c(O)c(C(C)(C)C)c2)C1=O [LY-256548, 5-{[3,5-bis(1,1-dimethylethyl)-4-hydroxyphenyl]methylene}-4-N-methylthiazolidine]
- enzymatic activity of phospholipase A2 (phospholipase A2): inhibit
- enzymatic activity of fatty acid cyclooxygenase [8]: inhibit
- leukotriene B4 production [9]: inhibit leukotriene B4 production
- enzymatic activity of 5-lipoxygenase (5-lipoxygenase [10]): inhibit

Molecule: Cc1cc(C(C)(C)C)c(O)c(C(C)(C)C)c1 [BHT, 2,6-Bis(1,1-dimethylethyl)-4-methylphenol]
- effect on stellate cell cycle activation (PCNA) induced by collagen type I matrix or TGFα (hepatic stellate cells [1]): blocked the activation of the stellate cell cycle
- solubility in alcohols ([11]; alcohols like ethanol and isopropanol): soluble
- solubility in water ([11]; water): insoluble
- effect on stellate cell activation / increased α-SMA expression induced by collagen type I matrix (hepatic stellate cells [6]; 50 μM): blocked the induction of stellate cell activation by collagen type I matrix; also recorded: abolished

Molecule: NC(=O)c1ncn([C@@H]2O[C@H](CO)[C@@H](O)[C@H]2O)n1 [ribovirin]
- effectiveness (chronic hepatitis B or C): neither has been shown to be very effective

Molecule: O=CCC=O [malondialdehyde]
- stellate cell entry into S-phase (hepatic stellate cells [1]; 200 μM, EHS matrix): stimulated stellate cell entry into S-phase
- activation of hepatic stellate cells on EHS matrix (hepatic stellate cells [6]; 50 μM, data not shown): able to activate stellate cells, but to a lesser extent
- activation of hepatic stellate cells on EHS matrix (hepatic stellate cells [6]; 200 μM): markedly stimulated the activation of hepatic stellate cells
- cells (+) for α-SMA (hepatic stellate cells [6]; stellate cells cultured on plastic, 58% without malondialdehyde, P<0.05): 93%

Molecule: NC1=NN(c2cccc(C(F)(F)F)c2)CC1 [BW-755c]
- inhibition of activation and collagen expression/production (cultured stellate cells): success in inhibiting activation and collagen production

Molecule: C#CCCCC(=O)c1cc(C(C)(C)C)c(O)c(C(C)(C)C)c1 [tebufelone, 4-(5′-hexynoyl)-2,6-di-tert-butylphenol]
- 5-lipoxygenase inhibition (5-lipoxygenase [12]): reversibly inhibits
- cyclooxygenase inhibition (cyclooxygenase): reversibly inhibits

Molecule: CCCOC(=O)c1cc(O)c(O)c(O)c1 [propyl gallate]
- inhibition of activation and collagen expression/production (cultured stellate cells): success in inhibiting activation and collagen production

Molecule: CC(C)(C)c1cc(C=C2SCNC2=O)cc(C(C)(C)C)c1O [LY-178002, 5-{[3,5-bis(1,1-dimethylethyl)-4-hydroxyphenyl]methylene}-4-thiazolidine]
- enzymatic activity of phospholipase A2 (phospholipase A2): inhibit
- enzymatic activity of fatty acid cyclooxygenase [8]: inhibit
- leukotriene B4 production [9]: inhibit leukotriene B4 production
- enzymatic activity of 5-lipoxygenase (5-lipoxygenase [10]): inhibit

Molecule: CCCCC[C@H](O)/C=C/[C@H]1[C@H](O)CC(=O)[C@@H]1C/C=C\CCCC(=O)O [prostaglandin E2]
- hepatocellular necrosis [2]: ameliorate hepatocellular necrosis
